Assay results: the Deep4Chem optical property database
“And” between values parts separate entries of the source, which are not always exact repeats. Identical values can stand only once.

Assay: solvent given as SMILES

N#Cc1ccc(-n2c(-c3ccc(-c4ccc(-n5c6ccccc6c6ccccc65)cc4)s3)nc3c4ccccc4c4ccccc4c32)c2ccccc12 gave a fluorescence lifetime (in ClCCl) of 4.3 ns.
Cn1cccc1-c1cc(C#N)ccc1C#N gave a fluorescence lifetime (in C1CCOC1) of 13.1 ns, a fluorescence lifetime (in CC#N) of 2.8 ns and a fluorescence lifetime (in CCCCCC) of 7.5 ns. It also gave a fluorescence lifetime (in CCCCOCCCC) of 11.4 ns and a fluorescence lifetime (in CCOCC) of 12.6 ns.
For O=C1OC(=O)c2ccc(N(c3ccccc3)c3ccc4ccc5cccc6ccc3c4c56)c3cccc1c23, the fluorescence lifetime (in CCCCCC) was 4.36 ns and the fluorescence lifetime (in c1ccccc1) was 1.17 ns.
For c1ccc(-c2nc(-c3ccccc3)nc(-c3ccc(-n4c5ccccc5c5cc6c(cc54)C4(c5ccccc5-c5ccccc54)c4ccccc4-6)cc3)n2)cc1, the fluorescence lifetime (in O=P(c1ccccc1)(c1ccccc1)c1ccccc1Oc1ccccc1P(=O)(c1ccccc1)c1ccccc1) was 3.9 ns.
N#Cc1cc(-n2c3ccccc3c3cccnc32)c(-n2c3ccccc3c3cccnc32)cc1C#N gave a fluorescence lifetime (in c1cc(-n2c3ccccc3c3ccccc32)cc(-n2c3ccccc3c3ccccc32)c1) of 86 ns.
In the case of CC1=C(c2ccc(N(C)C)cc2)C(C)=[N+]2C1=C(c1c(-c3ccccn3)nc3ccccn13)c1c(C)c(-c3ccc(N(C)C)cc3)c(C)n1[B-]2(F)F, the fluorescence lifetime (in ClCCl) was 0.2 ns.
With C#CCNC1=C2C=CC=[N+]2[B-](F)(F)n2cccc21 the fluorescence lifetime (in C1CCCCC1) was 6.36 ns and 5.34 ns, the fluorescence lifetime (in CC(C)=O) was 4.92 ns and the fluorescence lifetime (in CCCCO) was 6.02 ns. For the same compound, the fluorescence lifetime (in CCCO) was 5.16 ns, the fluorescence lifetime (in CCO) was 4.14 ns and 3.81 ns and the fluorescence lifetime (in CCOC(C)=O) was 5.13 ns. For the same compound, the fluorescence lifetime (in CN(C)C=O) was 2.98 ns, the fluorescence lifetime (in CO) was 3.22 ns and the fluorescence lifetime (in CS(C)=O) was 1.73 ns. It also gave a fluorescence lifetime (in Cc1ccccc1) of 6.56 ns, a fluorescence lifetime (in ClC(Cl)Cl) of 5.29 ns and a fluorescence lifetime (in OCC(F)(F)F) of 6.34 ns. It also gave a fluorescence lifetime (in c1ccccc1) of 6.28 ns.
With C[Si](C)(C)c1ccc(-c2ccc(-c3ccc(-c4ccc(-c5ccc([Si](C)(C)C)cc5)cc4)c4nsnc34)cc2)cc1 the fluorescence lifetime (in C1CCOC1) was 5.4 ns.
Compound COc1ccc2c(-c3nc(-c4ccccc4)no3)cc(=O)oc2c1 has a fluorescence lifetime (in CCO) of 6.4 ns and a fluorescence lifetime (in ClC(Cl)Cl) of 4.8 ns.
For c1cc2c3ccc[n+]4cccc(c5ccc[n+](c1)c25)c34, the fluorescence lifetime (in CC#N) was 7.4 ns, the fluorescence lifetime (in CS(C)=O) was 4.4 ns and the fluorescence lifetime (in C[N+](=O)[O-]) was 6.2 ns. The fluorescence lifetime (in O) was 6.8 ns.
For CCCn1c2cccc3oc4cccc5oc6cccc1c6[c+](c45)c32, the fluorescence lifetime (in CC#N) was 23.2 ns, the fluorescence lifetime (in CO) was 20.7 ns and the fluorescence lifetime (in ClCCl) was 21.8 ns. For the same compound, the fluorescence lifetime (in OCC(O)CO) was 19.7 ns.
CCCCc1cc(-c2cccc(COC)c2)oc1-c1cccc(COC)c1 gave a fluorescence lifetime (in ClC(Cl)Cl) of 1.35 ns.
With COc1ccc(C2=C(c3ccc(-c4ccccc4)cc3)C(c3ccccc3)=[N+]3C2=Nc2c(-c4ccc(OC)cc4)c(-c4ccc(-c5ccccc5)cc4)c(-c4ccccc4)n2[B-]3(F)F)cc1 the fluorescence lifetime (in Cc1ccccc1) was 0.14 ns.
For c1ccc2c(c1)CCc1ccccc1N2c1c2ccccc2c(N2c3ccccc3CCc3ccccc32)c2ccccc12, the fluorescence lifetime (in Cc1ccccc1) was 34 ns.
CN(C)c1ccccc1 gave a fluorescence lifetime (in C1CCCCC1) of 3 ns.
With Cc1cc2cc3ccccc3cc2cn1 the fluorescence lifetime (in CCO) was 18.7 ns.
N#Cc1ccc(C#Cc2ccc(C#Cc3ccccc3C#N)cc2C#N)cc1 showed a fluorescence lifetime (in ClC(Cl)Cl) of 1.83 ns.
Compound Cc1cc(=O)oc2cc(/[NH+]=C/C=C3/C=C(C(=O)O)NC(C(=O)O)C3)ccc12 (centres undefined) has a fluorescence lifetime (in O) of 0.038 ns.
COC(=O)c1[nH]c(-c2ccc(OC)cc2)c2nnc3ccc(OC)cc3c12 gave a fluorescence lifetime (in ClCCl) of 6.1 ns.
Work on COC(=O)c1noc(-c2ccccc2)c1Br yielded a fluorescence lifetime (in C1CCCCC1) of 0.49 ns.
In the case of CC(C)(C)c1ccc(C2=c3sc(-c4ccc(C(C)(C)C)cc4)c(-c4ccc(C(C)(C)C)cc4)c3=[N+]3C2=Nc2c(-c4ccc(C(C)(C)C)cc4)c4sc(-c5ccc(C(C)(C)C)cc5)c(-c5ccc(C(C)(C)C)cc5)c4n2[B-]3(F)F)cc1, the fluorescence lifetime (in ClC(Cl)Cl) was 1.18 ns.
Cc1ccccc1C1=C2C=c3c(oc4ccc(C(C)(C)C)cc34)=[N+]2[B-](F)(F)n2c1cc1c3cc(C(C)(C)C)ccc3oc12 gave a fluorescence lifetime (in C1CCCCC1) of 4.11 ns, a fluorescence lifetime (in CCOC(C)=O) of 4.28 ns and a fluorescence lifetime (in CO) of 4.21 ns.
Compound CSc1sc(C(=O)c2ccccc2)c2nn[nH]c(=O)c12 has a fluorescence lifetime (in C1CCOC1) of 0.33 ns, a fluorescence lifetime (in CC#N) of 0.41 ns and a fluorescence lifetime (in CCO) of 0.28 ns. For the same compound, the fluorescence lifetime (in CN(C)C=O) was 0.19 ns, the fluorescence lifetime (in CO) was 0.22 ns and the fluorescence lifetime (in CS(C)=O) was 0.13 ns.
C/C=C/c1ccc(OC)cc1 gave a fluorescence lifetime (in CC#N) of 8.7 ns and a fluorescence lifetime (in CCCCCC) of 7.9 ns.
With Cc1ccc(-c2ccc(-c3ccc(-c4ccc(-c5ccc(C)cc5)cc4)c(/C(=C(/c4ccccc4)c4cc(-c5ccc(-c6ccc(C)cc6)cc5)ccc4-c4ccc(-c5ccc(C)cc5)cc4)c4ccccc4)c3)cc2)cc1 the fluorescence lifetime (in C1CCOC1) was 8.5 ns.
CCCCCCCCCCCCN1C(=O)c2c(c3ccc4cc(-c5ccccc5)c(OC)cc4c3c3c2ccc2cc(-c4ccccc4)c(OC)cc23)C1=O gave a fluorescence lifetime (in ClCCl) of 6.16 ns.
With CN(c1ccccc1)c1ccc(N(c2ccccc2)c2ccc3ccc4c(N(c5ccccc5)c5ccc(N(C)c6ccccc6)cc5)ccc5ccc2c3c54)cc1 the fluorescence lifetime (in ClCCl) was 1.1 ns.
